# In patent US9745289B2, “Aldosterone synthase inhibitors” (Boehringer Ingelheim International GmbH, priority 2014, dated 2017):
# Target: cortisol synthase (CYP11B1) (Macaca fascicularis, UniProt A0A2K5ULY1)
# Assay: Inhibition of Cortisol Synthesis
# Format: biochemical, cynomolgus monkey
# Conditions: cynomolgus adrenal gland mitochondria; 150 units of CYP11B1, 11-deoxycortisol as substrate, cortisol measured as product
# Procedure, shortened: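 Cynomolgus adrenal mitochondria as enzyme source (1 unit = 1 pmol product/h); 150 units CYP11B1 with 11-deoxycortisol substrate in 100 mM potassium phosphate pH 7.4, 1% DMSO, started with 1 mM NADPH, 90 min at 37 °C. Cortisol quantified by mass spectrometry; no-NADPH blank as 0%, no-compound as 100% activity.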
smiles,measurement,value
"N#Cc1cccc2c1OCC(c1cncc(CC(=O)N3CCOCC3)c1)O2 (single isomer, unassigned) [Cpd 43B, 2-[5-(2-Morpholin-4-yl-2-oxo-ethyl)-pyridin-3-yl]-2,3-dihydro-benzo[1,4]dioxine-5-carbonitrile]",IC50,> 30 µM
